Read-outs that look alike come from different tables or passages of the source.
What was measured:
liver cell = test system: liver cell; set-up: unit not given here; conditions: cited from earlier work
skeletal muscle = assay: Human clinical trial with statins: skeletal muscle cholesterol and ubiquinone (Paiva et al.); type: in vivo

CC(C)c1c(C(=O)Nc2ccccc2)c(-c2ccccc2)c(-c2ccc(F)cc2)n1CC[C@@H](O)C[C@@H](O)CC(=O)O [atorvastatin]
Cholesterol (liver cell; DOSE 0.01): 15.52
Cholesterol (liver cell; DOSE 3): 14.27
Cholesterol (liver cell; DOSE 10): 13.71
Cholesterol (liver cell; DOSE 20): 13.66

CCC(C)(C)C(=O)O[C@H]1C[C@@H](C)C=C2C=C[C@H](C)[C@H](CC[C@@H]3C[C@@H](O)CC(=O)O3)[C@H]21 [simvastatin]
Ubiquinone, Percent from placebo (skeletal muscle; drop): 134% drop
Cholesterol, Percent from placebo (skeletal muscle; rise): 139% rise
